Test: Plasma exposure in satellite group of mouse allergic rhinitis model
Format: in vivo
Details: Compound 2 10 mg/kg PO
Description: Compound 2 was evaluated in a mouse model of ovalbumin (OVA)-induced allergic rhinitis in which nasal ovalbumin challenges to OVA-primed mice elicits an increase in sneezing and nasal rubs (Methods were adapted from those detailed in Nakaya, M., et al. 2006, Laboratory Investigation, 86:917-926). OVA-primed mice received an intranasal challenge of OVA daily for 5 consecutive days. The number of sneezes and nasal rubs were counted over an 8 minute recording session on days 1, 3 and 5 immediately following OVA challenge. OVA caused a significant increase in both sneezing behavior and nasal rubs when compared to intranasal phosphate buffered saline (PBS) challenge. […] The plasma exposure for Compound 1 measured in a satellite group was 1360 nM, 460 nM, 210 nM and 90 nM for time points 1, 2, 4, and 6 hr post-dose, respectively.

## COc1ccc(CC(=O)O)cc1Oc1ccc(NC(=O)C(C)(C)C)cc1CSC(C)(C)C [Compound 1, 2-(3-(2-((tert-butylthio)methyl)-4-(2,2-dimethyl-propionylamino)phenoxy)-4-methoxyphenyl)acetic acid]
1 hr post-dose
  concentration at 1 h: 1.36 µM
2 hr post-dose, read-out: plasma exposure for Compound 1
  concentration at 2 h: 0.46 µM
4 hr post-dose, read-out: plasma exposure for Compound 1
  concentration at 4 h: 0.21 µM
6 hr post-dose, read-out: plasma exposure for Compound 1
  concentration at 6 h: 0.09 µM

From US9688624B2, “DP2 antagonist and uses thereof” (Brickell Biotech, Inc., priority 2010, dated 2017)
